Measured values published in patent US20240299376A1, “METHOD OF TREATING A CONDITION USING A […] EFFECTIVE DOSE OF 1-(1-OXO-1,2-DIHYDROISOQUINOLIN-5-YL)-5-(TRIFLUOROMETHYL)-N-(2-(TRIFLUOROMETHYL)PYRIDIN-4-YL)-1H-PYRAZOLE-4-CARBOXAMIDE” (Janssen Pharmaceutica NV, priority 2021, published 2024).
Like-named read-outs stand apart in the source and are kept apart here.

Assays:
[1] = tested on: MALT1 substrate BCL10; assay: BCL10 Mesoscale assay of OCI-LY3 tumor samples after a single dose; format: in vivo, NSG mice; details: OCI-LY3 tumors
Method: MALT1 protease activity results in the cleavage of negative regulators of the classical NF-κB pathway such as A20, CYLD, RelB, and BCL10. […] The assay measures un-cleaved BCL10 which is increased upon MALT1 inhibition. OCI-LY3 or OCI-LY10 tumors were crushed before lysis in Mammalian Protein Extraction Reagent buffer for 30 minutes at 4° C. Centrifugation of the lysate was done and supernatant kept for analysis in the MSD assay. MSD plates (small spot, goat anti-rabbit coated, MSD L45RA-1) were blocked for 1 hour with 3% Bovine serum Albumin (in Tris-buffered saline, 0.1% Tween 20) and labeled with BCL10 antibody (Abcam #33905) to capture the uncleaved BCL10. 25 μg of tumor lysates were transferred to the BCL 10-labeled MSD plate and incubated for 24 hours at 4° C. followed by 2-hour incubation with BCL10 antibody detecting cleaved/uncleaved BCL10 (ab93022) and 2-hour antibody detection. Plates were read on a SECTOR imager.
As a more direct PD readout, OCI-LY3 tumor samples were analyzed by a BCL 10 Mesoscale assay, looking for cleavage inhibition of the MALT1 substrate BCL10. The assay measures uncleaved BCL10 in tumor.
Tumor uncleaved BCL10 levels are graphed as the mean+SD.
For PD, when tumors reached 550-750 mm^3 animals were assigned randomly into the treatment groups and treated as presented in Table 5. Dose volumes were adjusted to individual body weights at 10 mL/kg. […]

[2] = tested on: T cells derived from healthy donors; assay: CyTOF analysis of T cells stimulated with CD3/28; format: cell-based, human
Excerpt: After fixation and barcoding, samples were pooled per donor and stained using a panel of 32 metal-labelled antibodies for identification of phenotype and function of immune cell populations and acquired on a CyTOF® C5 system. After debarcoding and normalization, cell populations were either manually gated or clustered by spanning-tree progression of density-normalized events (SPADE) analysis using Cytobank® software.
These observations are consistent with the fluorescence-activated cell sorting (FACS) analysis data.

[3] = Single IV dose plasma PK; format: in vivo, rat; details: for C0 / Vd / AUC(0-inf) / clearance / half-life: male, plasma, S-D; for C0 / Vd: Rat; for Vd / AUC(0-inf) / clearance / half-life: iv, 1 mg/kg; for Vd: read-out: Vdss
Method: Single intravenous (IV) dose PK was conducted in mice (two strains), rats, monkeys, and dogs at a dose of 1 mg/kg in 70% PEG400 (PEG400/water 70:30) by bolus injection. The time course for plasma sample was optimized to fully characterize the disposition profile in each species. PK analysis was by non-compartmental method.

[4] = 14-day oral toxicity study toxicokinetics in Sprague-Dawley rats; format: in vivo; details: rat, plasma; for Cmax / AUC(0-t): mean; for AUC(0-t): read-out: AUC0-24 h; for Tmax: range
Method: Repeated-dose PK (toxicokinetics) were obtained as part of the repeated oral dose toleration toxicity studies in rats and dogs.
There was no further increase in the daily exposure parameters at 1,000 mg/kg relative to those from 200 mg/kg/day. There was no effect of gender on exposure and there was no increase in daily exposure parameters on Day 14 relative to those observed after the first dose.

[5] = Preliminary food effect assessment at steady state; format: in vivo, human
Method: Preliminary food effect was assessed in 8 subjects at steady state: 2 subjects at 100 mg (2×50 mg), 1 subject at 400 mg (2×200 mg), 1 subject at 200 mg (4×50 mg) and 4 subjects at 300 mg (3×100 mg). In the fasting condition, JNJ-67856633 was administered after overnight fasting for at least 8 hours. In the fed condition, following an overnight fast of at least 8 hours, the subjects were given a high-fat meal 30 minutes before drug intake. In both conditions, no food was allowed for at least 4 hours after study drug intake. Individual plasma concentrations of JNJ-67856633 under fasting and fed conditions using 50 mg or 200 mg capsules are shown in Table 16.

[6] = Sprague-Dawley (S-D), rat, 3M, 1 mg/kg IV in 70% PEG400 (-AAA), mean
[7] = Sprague-Dawley (S-D), rat, 6M, 1 mg/kg IV, dosed as the -ZAF salt
[8] = female, 30 mg/kg/day, female, Day 0, 30 mg/kg/day
[9] = female, 30 mg/kg/day, female, Day 13, 30 mg/kg/day
[10] = female, 200 mg/kg/day, female, Day 0, 200 mg/kg/day
[11] = female, 200 mg/kg/day, female, Day 13, 200 mg/kg/day
[12] = female, 1000 mg/kg/day, female, Day 0, 1,000 mg/kg/day
[13] = female, 1000 mg/kg/day, female, Day 13, 1,000 mg/kg/day
[14] = male, 30 mg/kg/day, male, Day 0, 30 mg/kg/day
[15] = male, 30 mg/kg/day, male, Day 13, 30 mg/kg/day
[16] = male, 200 mg/kg/day, male, Day 0, 200 mg/kg/day
[17] = male, 200 mg/kg/day, male, Day 13, 200 mg/kg/day
[18] = male, 1000 mg/kg/day, male (4M), Day 13, 1,000 mg/kg/day
[19] = male, 1000 mg/kg/day, male, Day 0, 1,000 mg/kg/day

## O=C(Nc1ccnc(C(F)(F)F)c1)c1cnn(-c2cccc3c(=O)[nH]ccc23)c1C(F)(F)F [Compound A, 1-(1-oxo-1,2-dihydroisoquinolin-5-yl)-5-(trifluoromethyl)-N-[2-(trifluoromethyl)pyridin-4-yl]-1H-pyrazole-4-carboxamide]
[1]
  dose giving maximum levels of uncleaved BCL10: ≥ 10 mg/kg
  fraction of uncleaved BCL10 in tumor: dose-dependently increased the fraction of uncleaved BCL10
[2]; 4 days, CyTOF
  generation of Treg cells following CD3/28 stimulation: dose-dependently inhibited the generation of CD4^+CD25^+CD1271^lowFoxP3^hi cells
  number of CD8+ T cells: no strong effect on the number of CD8^+ T cells was observed
[2]; CD4+ and CD8+ T cells, CyTOF
  expression of TIM3: No decrease
[2]; CD8+ T cells, CyTOF
  expression of exhaustion markers PD-1, CTLA4, LAG3: decreased on CD8^+ T cells
[2]; CD69+CD25+ cells following CD3/28 stimulation
  activation of CD8+ T cells: reduced
[3]; Sprague-Dawley (S-D), 6M, 1 mg/kg IV, dosed as the -ZAF salt, mean
  C0: 1450 ng/mL
[3]; [6]
  Vd: 0.86 L/kg
  AUC(0-inf): 7.95 µg·h/mL
  clearance: 2.15 mL/min/kg
  half-life: 10 h
[3]; [7]
  Vd: 0.622 L/kg
  AUC(0-inf): 9.78 µg·h/mL
  clearance: 1.7 mL/min/kg
  half-life: 5.33 h
[3]; Sprague-Dawley, 3M, 1 mg/kg IV in 70% PEG400 (-AAA), mean
  C0: 2200 ng/mL
[3]; rat, LBF 55.2 mL/min/kg
  CL as fraction of liver blood flow (LBF): 1.5%
[4]; [8]
  Cmax: 27100 ng/mL
  AUC(0-t): 366 µg·h/mL
  Tmax: 1 to 7 h
[4]; [9]
  Cmax: 33400 ng/mL
  AUC(0-t): 451 µg·h/mL
  Tmax: 2 to 4 h
[4]; [10]
  Cmax: 93100 ng/mL
  AUC(0-t): 93.1 µg·h/mL
[4]; [11]
  Cmax: 96100 ng/mL
  AUC(0-t): 1300 µg·h/mL
  Tmax: 2 to 7 h
[4]; [12]
  Cmax: 83200 ng/mL
  AUC(0-t): 1140 µg·h/mL
  Tmax: 2 to 4 h
[4]; [13]
  Cmax: 83200 ng/mL
  AUC(0-t): 83.2 µg·h/mL
[4]; male, 30 mg/kg/day, male, Day 0 (first day of dosing), 30 mg/kg/day
  Cmax: 24400 ng/mL
[4]; [14]
  AUC(0-t): 247 µg·h/mL
  Tmax: 2 to 4 h
[4]; [15]
  Cmax: 26700 ng/mL
  AUC(0-t): 305 µg·h/mL
  Tmax: 2 h
[4]; [16]
  Cmax: 96700 ng/mL
  AUC(0-t): 1410 µg·h/mL
  Tmax: 7 to 9 h
[4]; [17]
  Cmax: 63900 ng/mL
  AUC(0-t): 803 µg·h/mL
  Tmax: 2 to 7 h
[4]; [18]
  Cmax: 83200 ng/mL
  AUC(0-t): 898 µg·h/mL
  Tmax: 2 to 4 h
[4]; [19]
  Cmax: 90800 ng/mL
  AUC(0-t): 1120 µg·h/mL
  Tmax: 2 to 9 h
[5]; 2 × 50 mg, fasted condition, steady state, individual values, N = 2, listed as JNJ-67856633
  Cmax: 18200 ng/mL
[5]; 2 × 50 mg, fed condition (high-fat meal), steady state, individual values, N = 2, listed as JNJ-67856633
  Cmax: 18400 ng/mL
[5]; 2 × 50 mg, fed condition, steady state, individual values, N = 2, listed as JNJ-67856633
  AUCτ: 421 µg·h/mL
[5]; 8 subjects at steady state
  steady state exposure (Cmax and AUCτ) fasting vs fed: comparable
[5]; human, plasma, oral, 100 mg, 2 × 50 mg, fasted condition, steady state, N = 2
  AUC: 313 µg·h/mL
[5]; human, plasma, oral, 100 mg, 2 × 50 mg, fasted condition, steady state, individual values, N = 2, read-out: Cmax
  Cmax: 15300 ng/mL
[5]; human, plasma, oral, 100 mg, 2 × 50 mg, fasted condition, steady state, individual values, N = 2, read-out: Tmax
  Tmax: 2 h
[5]; human, plasma, oral, 100 mg, 2 × 50 mg, fed condition (high-fat meal), steady state, individual values, N = 2, read-out: Cmax
  Cmax: 13400 ng/mL
[5]; human, plasma, oral, 100 mg, 2 × 50 mg, fed condition, steady state, individual values, N = 2
  AUC: 304 µg·h/mL
[5]; human, plasma, oral, 100 mg, 2 × 50 mg, fed condition, steady state, individual values, N = 2, read-out: Tmax
  Tmax: 6 h
[5]; human, plasma, oral, 200 mg, 4 × 50 mg, fasted condition, steady state, N = 1
  AUC: 958 µg·h/mL
[5]; human, plasma, oral, 200 mg, 4 × 50 mg, fasted condition, steady state, N = 1, read-out: Cmax
  Cmax: 47500 ng/mL
[5]; human, plasma, oral, 200 mg, 4 × 50 mg, fasted condition, steady state, N = 1, read-out: Tmax
  Tmax: 1 h
[5]; human, plasma, oral, 200 mg, 4 × 50 mg, fed condition, steady state, N = 1
  AUC: 1010 µg·h/mL
[5]; human, plasma, oral, 200 mg, 4 × 50 mg, fed condition, steady state, N = 1, read-out: Cmax
  Cmax: 48400 ng/mL
[5]; human, plasma, oral, 200 mg, 4 × 50 mg, fed condition, steady state, N = 1, read-out: Tmax
  Tmax: 24 h
[5]; human, plasma, oral, 400 mg, 2 × 200 mg, fasted condition, steady state, N = 1
  AUC: 1100 µg·h/mL
[5]; human, plasma, oral, 400 mg, 2 × 200 mg, fasted condition, steady state, N = 1, read-out: Cmax
  Cmax: 61100 ng/mL
[5]; human, plasma, oral, 400 mg, 2 × 200 mg, fed condition, steady state, N = 1
  AUC: 1320 µg·h/mL
[5]; human, plasma, oral, 400 mg, 2 × 200 mg, fed condition, steady state, N = 1, read-out: Cmax
  Cmax: 64000 ng/mL
[5]; human, plasma, oral, fasting conditions, 8 subjects at steady state, read-out: Tmax range
  Tmax: 0 to 4 h
[5]; human, plasma, oral, fed conditions, 8 subjects at steady state, read-out: Tmax range
  Tmax: 0.5 to 24 h
